Measured values: US20030055244A1, “Pyridyl-containing spirocyclic compounds as inhibitors of fibrinogen-dependent platelet aggregation” (priority 1999, published 2003)
Read-outs that look alike come from different tables or passages of the source.

Key:
[1] = test system: human platelet-rich plasma; assay: Platelet aggregation assay (Aggregation-Human PRP/ADP); assay type: cell-based
GPIIb-IIIa = molecular target: T1, GPIIb-IIIa (Homo sapiens, UniProt P05106+P08514); assay: ELISA IIb-IIIa assay (fibrinogen binding to immobilized purified GPIIb-IIIa); settings: inhibition of fibrinogen binding to purified GPIIb-IIIa
T1 construct: Purified platelet GPIIb-IIIa receptor was prepared as described by Fitzgerald; from tissue; host or cells: platelets
T1 sequence (P08514 32-887 limits assumed): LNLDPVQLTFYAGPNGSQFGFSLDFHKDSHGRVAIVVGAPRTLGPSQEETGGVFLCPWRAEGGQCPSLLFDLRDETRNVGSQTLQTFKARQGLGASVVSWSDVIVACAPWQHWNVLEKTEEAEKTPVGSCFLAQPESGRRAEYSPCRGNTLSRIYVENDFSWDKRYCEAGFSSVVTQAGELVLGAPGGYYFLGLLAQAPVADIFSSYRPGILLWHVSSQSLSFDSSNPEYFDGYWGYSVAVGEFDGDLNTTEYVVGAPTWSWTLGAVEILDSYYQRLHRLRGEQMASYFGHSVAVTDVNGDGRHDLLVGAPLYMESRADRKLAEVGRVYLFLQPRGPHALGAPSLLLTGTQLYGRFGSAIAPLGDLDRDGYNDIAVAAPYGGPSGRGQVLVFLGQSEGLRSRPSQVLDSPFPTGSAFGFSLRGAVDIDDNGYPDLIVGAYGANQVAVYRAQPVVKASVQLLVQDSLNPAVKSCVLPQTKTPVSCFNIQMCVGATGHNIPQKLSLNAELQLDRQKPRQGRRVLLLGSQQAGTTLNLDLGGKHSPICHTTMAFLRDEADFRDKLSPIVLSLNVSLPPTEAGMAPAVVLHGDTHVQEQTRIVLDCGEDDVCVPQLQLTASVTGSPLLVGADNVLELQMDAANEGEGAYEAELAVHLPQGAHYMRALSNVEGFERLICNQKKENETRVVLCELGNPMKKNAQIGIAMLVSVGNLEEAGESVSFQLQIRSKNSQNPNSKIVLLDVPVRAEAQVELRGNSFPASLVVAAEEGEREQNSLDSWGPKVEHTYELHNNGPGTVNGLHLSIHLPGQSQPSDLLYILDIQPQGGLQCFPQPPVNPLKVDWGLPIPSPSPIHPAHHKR
T1 sequence (P08514 891-1039 limits assumed): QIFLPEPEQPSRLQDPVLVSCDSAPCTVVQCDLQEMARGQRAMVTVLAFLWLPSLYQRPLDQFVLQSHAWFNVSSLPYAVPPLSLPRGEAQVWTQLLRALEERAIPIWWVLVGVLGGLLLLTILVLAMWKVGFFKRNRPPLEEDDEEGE
T1 sequence (P05106 27-788): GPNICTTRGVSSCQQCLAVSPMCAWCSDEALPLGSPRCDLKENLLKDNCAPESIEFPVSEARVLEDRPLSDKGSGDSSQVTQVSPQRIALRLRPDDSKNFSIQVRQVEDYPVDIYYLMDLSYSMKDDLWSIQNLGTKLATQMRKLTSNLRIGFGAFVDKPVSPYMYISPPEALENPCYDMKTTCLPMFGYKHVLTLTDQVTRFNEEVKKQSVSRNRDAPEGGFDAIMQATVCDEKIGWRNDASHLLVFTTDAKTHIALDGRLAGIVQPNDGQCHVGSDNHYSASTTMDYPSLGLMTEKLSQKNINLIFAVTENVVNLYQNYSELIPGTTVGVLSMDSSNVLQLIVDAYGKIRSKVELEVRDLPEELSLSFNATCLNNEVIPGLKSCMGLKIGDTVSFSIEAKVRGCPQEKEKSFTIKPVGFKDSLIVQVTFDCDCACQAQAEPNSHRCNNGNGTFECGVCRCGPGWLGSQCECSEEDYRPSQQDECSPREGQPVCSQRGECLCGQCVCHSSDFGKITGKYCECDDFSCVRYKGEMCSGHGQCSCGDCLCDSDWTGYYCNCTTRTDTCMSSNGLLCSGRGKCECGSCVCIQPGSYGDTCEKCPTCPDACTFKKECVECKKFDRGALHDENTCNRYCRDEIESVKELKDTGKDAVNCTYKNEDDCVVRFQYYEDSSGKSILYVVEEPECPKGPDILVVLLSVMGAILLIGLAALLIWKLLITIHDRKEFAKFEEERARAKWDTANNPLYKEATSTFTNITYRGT
Procedure: No. 1 - The ELISA IIb-IIIa Assay
PIIb-IIIa is coated onto microtiter plates. The coated support is then contacted with fibrinogen and with the test material (e.g., compounds of Formula I) and incubated for a sufficient time to permit maximal binding of fibrinogen to the immobilized GPIIb- Ila. Fibrinogen is typically provided at a concentration of about 5-50 nM and the test material can, if desired, be added at a series of dilution. Typical incubations are 2 to 4 hours at 25° C., the time and temperature being interdependent.
After incubation, the solution containing the fibrinogen and test material is removed and the level of binding of fibrinogen measured by quantitating bound fibrinogen to GPIIb-IIIa. Any suitable means of detection may be used, but it is convenient to employ labeled fibrinogen, for example using biotinylated labels. Such methods are well known in the art.
A. Description of Assays—Plate Assays
After purification, the receptors were stored in 0.1% Triton X-100 at 0.1-1.0 mg/ml.
The receptors were coated to the wells of 96-well flat-bottom ELISA plates (Linbro EIA-Plus microtiter plate, Flow Laboratories) after diluting 1:200 with a solution of 20 mM Tris-HCl, 150 mM NaCl, 1 mM CaCl2, pH 7.4, to reduce the Triton X-100 concentration to below its critical micellar concentration and adding an aliquot of 100 ul to each well. The wells were all allowed to incubate overnight at 4° C., and then aspirated to dryness. Additional sites were blocked by the addition of bovine serum albumin (BSA) at 35 mg/ml in the above buffer for two hours at 30° C. to prevent nonspecific binding. The wells were then washed once with binding buffer ([…] Tris-HCl, 100 mM NaCl 2 mM CaCl2, 1 mg/ml BSA).
The corresponding ligands (fibrinogen, von Willebrand Factor, or vitronectin) were conjugated to biotin using commercially available reagents and standard protocols. The labeled ligands were added to the receptor-coated wells at final concentration of 10 nM (100 ul/well) and incubated for 3 hours at 25° C. in the presence or absence of the test samples. After incubation, the wells are aspirated to dryness and bound ligand is quantitated.
Decreased color development is observed in wells incubated with test samples which inhibit binding of ligand to receptor.

[2] = test system: human platelet-rich plasma; assay: Platelet aggregation assay (Aggregation-Human PRP/ADP); assay type: cell-based; remark: listed apart in the source
Procedure: Platelet-rich plasma was prepared from healthy human volunteers for use in determining inhibition of platelet aggregation by the compounds.
Platelet-rich plasma was prepared at room temperature by centrifugation of the citrated whole blood at 100 × g for twelve minutes. The platelet rich plasma contained approximately 200-400,000 platelets/μl.
Platelet aggregation was assayed in a 4-channel platelet aggregation profiler (PAP-4, Biodata, Hatboro, Pa.) according to the manufacturers directions. Inhibition of platelet aggregation was studied by adding varying amounts of adenosine diphosphate (ADP) to stirred human platelet-rich plasma. Specifically, the human platelet-rich plasma was incubated with the compound being tested for 1 minute at 37° C. prior to the addition of a variety of aggregating agents most often ADP 5 μM to 20 μM, but also 1 μg/ml collagen, 1 μM U46619 and 0.3 μM platelet activating factor.

[3] = read-out: PRP (ADP-Citrate) IC50

SMILES	IC50 ([1]; read-out: PRP (ADP-PPACK) IC50)	IC50 (GPIIb-IIIa)	IC50 [2, 3]	IC50 ([1]; read-out: PRP (PPACK) IC50)	IC50 ([2]; read-out: PRP (ADP) IC50)	IC50 ([2]; read-out: PRP IC50)
Cc1noc(C)c1S(=O)(=O)N[C@@H](CNC(=O)C1CCC2(CC1)CCN(c1ccncc1)CC2)C(=O)O [Example 13, (2S)-2-{[(3,5-dimethyl-4-isoxazolyl)sulfonyl]amino}-3-({[3-(4-pyridyl)-3-azaspiro [5.5]undec-9-yl]carbonyl}amino)propanoic acid]	68 nM	1 nM	44 nM			
Cc1ccc(S(=O)(=O)N[C@@H](CNC(=O)C2CCC3(CC2)CCN(c2ccncc2)CC3)C(=O)O)cc1 [Example 14, (2S)-2-{[(4-methylphenyl)sulfonyl]amino}-3-({[3-(4-pyridyl)-3-azaspiro [5.5]undec-9-yl]carbonyl}amino)propanoic acid]	169 nM	1 nM	98 nM			
CCCCS(=O)(=O)N[C@@H](CNC(=O)C1CCC2(CC1)CCN(c1ccncc1)CC2)C(=O)O [Example 15]		10 nM		686 nM	168 nM	
O=C(O)COC1CCN(C(=O)N2CCC3(CCN(c4ccncc4)CC3)C2)CC1 [Example 26, 2-((1-((8-(4-pyridyl)-2,8-diazaspiro[4.5]dec-2-yl)carbonyl)-4-piperidyl)oxy)acetic acid]		457 nM	1000 nM			
O=C(O)CN1CCN(C(=O)N2CCC3(CCN(c4ccncc4)CC3)C2)CC1=O [Example 27, 2-(2-oxo-4-((8-(4-pyridyl)-2,8-diazaspiro[4.5]dec-2-yl)carbonyl)-4-piperazino) acetic acid]		35 nM	568 nM			
O=C(O)CN1CCN(C(=O)N2CCC3(CC2)CCN(c2ccncc2)C3)CC1=O [Example 29, 2-(2-oxo-4-((2-(4-pyridyl)-2,8-diazaspiro[4.5]dec-8-yl)carbonyl)piperazino)acetic acid]		122 nM	2650 nM			
O=C(O)CC(=O)N1CCN(C(=O)N2CCC3(CC2)CCN(c2ccncc2)C3)CC1 [Example 31, 3-oxo-3-(4-{[-(4-pyridyl)-2,8-diazaspiro[4.5]dec-8-yl]carbonyl}piperazino) propanoic acid]	3600 nM		660 nM			
Cc1noc(C)c1S(=O)(=O)N[C@@H](CCC(=O)N1CCC2(CC1)CCN(c1ccncc1)C2)C(=O)O [Example 34, (2S)-2-{[(3,5-dimethyl-4-isoxazolyl)sulfonyl]amino}-5-oxo-5-[2-(4-pyridyl)-2,8-diazaspiro [4.5]dec-8-yl]pentanoic acid]		2 nM	271 nM			
O=C(O)CN1CCN(C(=O)N2CCC3(CC2)CCN(c2ccncc2)C3)CC1 [Example 41]		252 nM				8920 nM
O=C(O)CC(=O)N1CCCN(C(=O)N2CCC3(CC2)CCN(c2ccncc2)C3)CC1 [Example 43, 3-oxo-3-(4-{[2-(4-pyridyl)-2,8-diazaspiro[4.5]dec-8-yl]carbonyl}-1,4-diazepan-1-yl) propanoic acid]		25 nM				697 nM
O=C(O)COC1CCN(C(=O)N2CCC3(CC2)CCN(c2ccncc2)C3)CC1 [Example 44]		138 nM				3780 nM
O=C(O)COCC1CCN(C(=O)N2CCC3(CC2)CCN(c2ccncc2)C3)CC1 [Example 45, 2-[(1-{[2-(4-pyridyl)-2,8-diazaspiro[4.5]dec-8-yl]carbonyl}-4-piperidyl)-methoxy]acetic acid]		106 nM				2820 nM
O=C(O)CC(=O)NC1CCN(C(=O)N2CCC3(CC2)CCN(c2ccncc2)C3)C1 (stereo not drawn) [Example 47, 3-oxo-3-[(1-{[2-(4-pyridyl)-2,8-diazaspiro[4.5]dec-8-yl]carbonyl}-tetrahydro-1H-3-pyrrolyl)amino]propanoic acid]		447 nM				5860 nM
O=C(O)CCN1CCC(C(=O)N2CCC3(CC2)CCN(c2ccncc2)C3)CC1 [Example 49, 3-(4-{[2-(4-pyridyl)-2,8-diazaspiro[4.5]dec-8-yl]carbonyl}piperidino) propanoic acid]		17 nM				1010 nM
O=C(O)CS(=O)(=O)N1CCC(C(=O)N2CCC3(CC2)CCN(c2ccncc2)C3)CC1 [Example 51, ethyl 2-[(4-{[2-(4-pyridyl)-2,8-diazaspiro[4.5]dec-8-yl]carbonyl}-piperidino)sulfonyl]acetic acid]		94 nM	938 nM			
O=C(O)Cn1ccc2cc(C(=O)N3CCC4(CC3)CCN(c3ccncc3)C4)ccc21 [Example 53, 2-(5-{[2(4-pyridyl)-2,8-diazaspiro[4,5]dec-8-yl]carbonyl}-1H-1-indolyl) acetic acid]		47 nM	952 nM			
O=C(O)Cc1csc(NC(=O)CN2CCC3(CC2)CCN(c2ccncc2)C3)n1 [Example 54, 2-[2-({2-[2-(4-pyridyl)-2,8-diazaspiro[4.5]dec-8-yl]acetyl}amino)-1,3-thiazol-4-yl]acetic acid]		2280 nM	32100 nM			
O=C(O)CCNC(=O)N1CCC2(CC1)CCN(c1ccncc1)C2 [Example 55, 3-({[2-(4-pyridyl)-2,8-diazaspiro[4.5]dec-8-yl]carbonyl}amino)propanoic acid]		28900 nM	34600 nM			
